Measured values from paper PMC9831672 (Journal of the American Chemical Society, 2022).

Target: NotF (Aspergillus sp. MF297-2, UniProt E0Y3X1)
Assay type: binding
Details: ternary complex with brevianamide F; non-hydrolysable DMAPP analogue

Sequence of NotF (E0Y3X1 whole entry): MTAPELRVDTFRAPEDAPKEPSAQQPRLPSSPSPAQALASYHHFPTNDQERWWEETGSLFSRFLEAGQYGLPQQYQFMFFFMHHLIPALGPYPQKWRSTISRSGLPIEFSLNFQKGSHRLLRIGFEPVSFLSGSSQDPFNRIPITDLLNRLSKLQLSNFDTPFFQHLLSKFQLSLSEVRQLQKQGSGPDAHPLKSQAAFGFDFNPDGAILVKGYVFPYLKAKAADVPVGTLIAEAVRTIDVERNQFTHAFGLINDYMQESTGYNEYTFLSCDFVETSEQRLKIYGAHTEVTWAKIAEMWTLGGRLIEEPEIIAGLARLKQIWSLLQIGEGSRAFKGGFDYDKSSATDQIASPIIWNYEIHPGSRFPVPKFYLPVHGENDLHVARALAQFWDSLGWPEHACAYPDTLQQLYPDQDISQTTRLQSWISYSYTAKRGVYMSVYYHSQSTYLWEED

For `CC(C)=CCSP(=O)(O)OP(=O)(O)O` [dimethylallyl S-thiolodiphosphate], which “X-ray crystal structure (3.0 A), co-crystallisation” value is on record?
Its value is “a non-hydrolysable DMAPP analog, dimethylallyl S-thiolodiphosphate (DMSPP), was determined”.
